The values below come from article PMC5618791, “Double quick, double click reversible peptide “stapling”” (Chemical Science, 2017).

Data set [1] in a line: Circular dichroism, % helicity. To be noted: CD, peptide 10-20 μM, calculated from MRE at 222 nm. It counts as physicochemical. The procedure: Samples were prepared in two different solvent systems (30% TFE:H2O, 30% CH3CN:water) to concentrations between 10 - 20 μM (Figure S 23). Considering the high number of hydrophobic residues in BID and S peptides, organic co-solvents were used to ensure good solubility and avoid aggregation at concentrations high enough for CD analyses. DMSO stocks of peptides were not used for CD due to its high absorbance below 230 nm.
The raw circular dichroism data obtained for the peptides was processed by the subtraction of the solvent signal and converted into a mean residue ellipticity:
Where = molar ellipticity[θ]MRE per residue, θ = circular dichroism at a given wavelength, c = molar concentration, l = path length in cm, R = number of residues in the peptide sequence.
Calculation of % helicity was performed by the following equation:[4]
Where: θH = Theoretical MRE for 100% helicity at 222 nm, θ0 = Theoretical MRE for 100% helicity at 222 nm at 0 °C = –44000, (∂θ/∂T) = temperature dependence of infinite helix = +250, T = temperature in °C, x = 3, Nr = number of residues in the peptide.
In both solvent systems, it is noteworthy that STA-peptides are more helical than RED-peptides or WT-peptides; with the exception of constrained S-Cys-peptides. The use of TFE as co-solvent in water enhances the α-helicity of both series of peptides compared to the use of acetonitrile in water. […]
thus bioactive) conformation. The S peptides show a low helix propensity which is consistent […]
Figure S 23: CD spectra A. and B. in 30% TFE:H 2O; C. and D. in 30% CH3CN:H 2O.
Table 1: Percentage of helicity in the three solvent systems […]
(also on this page, place not known: Molar residue ellipticity (deg.cm 2 .dmol -1 ) Molar residue ellipticity (deg.cm 2 .dmol -1 ) Molar residue ellipticity (deg.cm 2 .dmol -1 ) Molar residue ellipticity (deg.cm 2 .dmol -1 ) TFE:H2O; CH3CN:H2O.)

A short description of data set [2]: Trypsin proteolysis followed by LC-MS. Format: in vitro ADME. Conditions: trypsin from bovine pancreas (isolated protease), pH 7.5, 1:10000 enzyme/substrate ratio, 50 mM phosphate buffer, 200 mM NaCl, pH 7.50, peptide 200 μM stock, 5% DMSO, LC-MS of intact peptide at 0, 5, 12, 21, 45, 90 min, read-out: t1/2, trypsin proteolysis. The procedure:
Proteolysis studies on BID peptides
Trypsin, modified sequencing grade from bovine pancreas (lyophilized powder, MW = 24 kDa, ≥ 4 units/mg protein) was purchased from Sigma-Aldrich and used without further purification. BID peptides (200 µM stock in PBS buffer pH 7.50, 5% DMSO) were treated with Trypsin (0.02 µM stock solutions in PBS buffer pH 7.50) in a 1:10000 enzyme/substrate ratio.
The degradation was followed with LCMS (Aeris Peptide LC-Column XB-C18 2.6 µm, 100x2.1 mm, injection volume: 5 µL, acetonitrile/water (0.1% formic acid) 5-95% gradient).
The degradation pattern of each peptide (figure A) could be identified by mass spectrometry.
The cleavage sites are marked by dotted lines and the subsequent fragment masses, shown in squares, are allocated to a number which is reported on the LCMS graph (graph B).
The LCMS traces (graph B) of each peptide incubated with Trypsin were recorded at the following successive times: 0, 5, 12, 21, 45 and 90 min.
(graph C) was integrated to extract kinetic values.

The structures appear in SMILES notation.

For `CCCC[C@H](NC(=O)[C@H](CCS)NC(=O)[C@H](CC(=O)O)NC(=O)CNC(=O)[C@@H](NC(=O)[C@H](CCS)NC(=O)[C@H](C)NC(=O)[C@H](CC(C)C)NC(=O)[C@H](Cc1c[nH]cn1)NC(=O)[C@H](CCCNC(=N)N)NC(=O)[C@H](C)NC(=O)[C@@H](NC(=O)[C@H](CC(N)=O)NC(=O)[C@H](CCCNC(=N)N)NC(=O)[C@@H](NC(=O)[C@@H](NC(=O)[C@H](CC(=O)O)NC(=O)[C@H](CCC(=O)O)NC(C)=O)[C@@H](C)CC)[C@@H](C)CC)[C@@H](C)CC)C(C)C)C(=O)N[C@@H](CC(=O)O)C(=O)N[C@@H](CCCNC(=N)N)C(=O)N[C@@H](CO)C(=O)N[C@H](C(=O)N[C@@H](Cc1c[nH]c2ccccc12)C(N)=O)[C@@H](C)CC` [1b], the “Percentage of helicity, 30% TFE:H2O” value in data set [1] is given as 23%. The half-life in data set [2] came out at 32 min.

As to `CCCC[C@H](NC(=O)[C@@H]1CCSC2=C(SCC[C@H](NC(=O)[C@H](C)NC(=O)[C@H](CC(C)C)NC(=O)[C@H](Cc3c[nH]cn3)NC(=O)[C@H](CCCNC(=N)N)NC(=O)[C@H](C)NC(=O)[C@@H](NC(=O)[C@H](CC(N)=O)NC(=O)[C@H](CCCNC(=N)N)NC(=O)[C@@H](NC(=O)[C@@H](NC(=O)[C@H](CC(=O)O)NC(=O)[C@H](CCC(=O)O)NC(C)=O)[C@@H](C)CC)[C@@H](C)CC)[C@@H](C)CC)C(=O)N[C@@H](C(C)C)C(=O)NCC(=O)N[C@@H](CC(=O)O)C(=O)N1)C(=O)NC2=O)C(=O)N[C@@H](CC(=O)O)C(=O)N[C@@H](CCCNC(=N)N)C(=O)N[C@@H](CO)C(=O)N[C@H](C(=O)N[C@@H](Cc1c[nH]c2ccccc12)C(N)=O)[C@@H](C)CC` [3b], the “Percentage of helicity, 30% CH3CN:H2O” value in data set [1] (30% CH3CN:H2O) is 43%. The “Percentage of helicity, 30% TFE:H2O” value in data set [1] is listed as 47%. Besides, the half-life in data set [2] turned out to be 84 min.
